Where “and” joins values, the source holds several entries; their conditions need not be identical. Equal values may be shown once. Read-outs that look alike come from different tables or passages of the source.
Legend:
[1] = system: Na^+/K^+-ATPase from basal membrane of opercular epithelium; test: Epithelial short circuit current (Isc) in Ussing chambers ex vivo, POT added basolaterally; assay type: cell-based, killifish (F. heteroclitus); conditions: basolateral; for Maximum inhibition: % of basal Isc
Excerpt: Epithelial tissues can transport ions and generate a transepithelial voltage termed “active transport potential”, which is caused by the asymmetric distribution of ion channels and transporters on the apical and basolateral membranes. The net movement of charges from the apical to the basolateral side (and vice versa) generates a voltage equal to the voltage differences between the apical and basolateral membranes. Ex vivo, the short circuit current (Isc) is an accurate reflection of the secretory/absorptive capacity of the tissue when short-circuited. In the opercular epithelium of killifish used for our studies, Isc is a direct measure of apical chloride secretion mediated by chloride channels, which relies on an intact basolateral Na^+/K^+-ATPase function.[43],[44]
Methodology for the ex vivo opercular epithelia preparation followed our current methods.[45] Fish were anaesthetized with 2-phenoxyethanol (1 : 2000 v/v), sacrificed by decapitation and the cranium was cut longitudinally. The gills and other tissue remains were removed carefully and the epithelial skin covering the opercular bone were dissected out and transferred to fresh-gassed saline (99.7 : 0.3 O2/CO2) with the following composition (all values in mM): NaCl, 160; MgSO4, 0.93; NaH2PO4, 3.0; CaCl2, 1.5; NaHCO3, 17.85; KCl, 3.0; glucose, 5.5; HEPES (pH 7.8), 5.0. The epithelia were overlaid onto a thin bore polythene net, protected between two parafilm gaskets and pinned over the circular aperture of a tissue holder (P2410, 0.20 cm^2, Physiological Instruments, San Diego, USA), with the perimeter area lightly greased with vacuum silicone to minimize tissue edge damage. The mounted tissue was positioned between the two halves of the Ussing chamber (P2400, Physiological Instruments, San Diego, USA) with 4 mL of gassed saline at 22 °C and gassed with a 99.7 : 0.3 O2/CO2 mix to provide oxygenation, good mixing by gas lift and pH control (pH = 7.8).
The preparations were left to stand for at least 60 min or until a steady basal measurement of bioelectrical variables was achieved. Measurement of the short circuit current (Isc, μA cm^–2) was performed at symmetric conditions under voltage clamp to 0 mV. The open circuit potential (Vt, mV) and Isc were monitored by means of Ag/AgCl electrodes connected to the chambers by 3 mm bore agar bridges (1 M KCl in 3% agar). Clamping of epithelia to 0 mV and recording of Isc was performed by VCC600 voltage clamp amplifiers (Physiologic Instruments, San Diego, USA). Epithelial resistance (Rt, Ω cm^2) was manually calculated (Ohm's law) using the current deflections induced by bilateral 1 mV pulses of 3 s every minute. Bioelectrical data were continuously digitized through a Lab-Trax-4 (WPI, Sarasota, US) onto a Macbook laptop using Labscribe3 Software (Iworks systems, Dover, US). Upon signal baseline stabilization, freshly prepared POT solutions were added to the basal or the apical side of the chamber (Fig. 2) and the effects on the Na^+/K^+-ATPase from basal membrane or the chloride channel forming the apical membrane were followed for 60 to 90 minutes. The maximum inhibitory effect (in %) of the POTs on the ATPase activity and the effective time (ET50), which is the time necessary to reach 50% of the maximum effects (in minutes), was determined by measuring the % decrease of short circuit current (Isc, μA cm^–2) in the absence (100% activity) and presence of the POTs. All the experiments were performed at least in triplicates. Calculations of the ET50 and maximum effect values were performed using GraphPad Prism version 6.00 for Macintosh (GraphPad Software, La Jolla California USA).

SR Ca^2+-ATPase [2] = molecular target: T1, SR Ca^2+-ATPase (Oryctolagus cuniculus, UniProt P04191); test: Steady-state SR Ca2+-ATPase ATP hydrolysis, coupled pyruvate kinase/lactate dehydrogenase assay; assay type: biochemical, rabbit; conditions: for IC50: SR vesicles from skeletal muscle, 25 °C, 2.5 mM ATP, calcimycin 4% (w/w); for Type of inhibition of Ca^2+-ATPase: Lineweaver-Burk, TeW6 at 100 μM
T1 construct: Isolated sarcoplasmic reticulum vesicles (SRVs), prepared from rabbit skeletal muscles as described elsewhere; from tissue; host or cells: rabbit skeletal muscle, sarcoplasmic reticulum vesicles
T1 sequence (P04191 1-994 isoform P04191-2): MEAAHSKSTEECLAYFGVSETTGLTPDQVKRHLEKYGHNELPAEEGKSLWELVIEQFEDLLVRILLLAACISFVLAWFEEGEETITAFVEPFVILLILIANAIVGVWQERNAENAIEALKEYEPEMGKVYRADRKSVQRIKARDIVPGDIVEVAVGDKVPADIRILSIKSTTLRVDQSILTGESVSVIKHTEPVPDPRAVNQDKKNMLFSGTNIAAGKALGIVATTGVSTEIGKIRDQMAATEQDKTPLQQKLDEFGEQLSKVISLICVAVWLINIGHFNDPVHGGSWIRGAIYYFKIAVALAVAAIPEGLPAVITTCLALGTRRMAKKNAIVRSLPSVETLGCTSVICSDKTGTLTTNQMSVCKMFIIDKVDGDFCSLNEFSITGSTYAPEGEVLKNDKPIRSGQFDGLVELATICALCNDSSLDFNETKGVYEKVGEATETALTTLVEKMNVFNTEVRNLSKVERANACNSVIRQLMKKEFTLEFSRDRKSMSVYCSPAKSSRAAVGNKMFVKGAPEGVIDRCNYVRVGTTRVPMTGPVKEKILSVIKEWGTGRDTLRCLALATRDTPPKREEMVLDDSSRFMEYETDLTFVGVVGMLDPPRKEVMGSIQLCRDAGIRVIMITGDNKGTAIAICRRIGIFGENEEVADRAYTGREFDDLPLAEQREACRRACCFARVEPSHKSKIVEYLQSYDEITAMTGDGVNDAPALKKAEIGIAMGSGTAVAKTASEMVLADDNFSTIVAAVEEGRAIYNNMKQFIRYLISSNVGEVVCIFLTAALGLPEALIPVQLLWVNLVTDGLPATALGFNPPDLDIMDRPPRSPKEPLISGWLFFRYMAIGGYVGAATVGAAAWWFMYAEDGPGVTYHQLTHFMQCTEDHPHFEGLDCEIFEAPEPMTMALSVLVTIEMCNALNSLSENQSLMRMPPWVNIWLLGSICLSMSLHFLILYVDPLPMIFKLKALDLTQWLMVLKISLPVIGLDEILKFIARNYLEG
Protocol: All reagents used for the preparation of the calcium pump vesicles were purchased from Sigma-Aldrich (Portugal). Isolated sarcoplasmic reticulum vesicles (SRVs), prepared from rabbit skeletal muscles as described elsewhere,[33] were suspended in 0.1 M KCl, 10 mM HEPES (pH 7.0), diluted 1 : 1 with 2.0 M sucrose and frozen in liquid nitrogen for storage at –80 °C. The protein concentration was determined spectrophotometrically at 595 nm in the presence of 0.125% of sodium dodecyl sulphate (SDS) by Bradford method with bovine serum albumin as a standard. The percentage of each protein present in the SRV preparations was determined by densitometry analysis of SDS-PAGE (7.5% acrylamide) protein bands. The SR Ca^2+-ATPase constituted at least 70% of the total protein amount in the SR-vesicles according to SDS-PAGE. The sarcoplasmic reticulum Ca^2+-ATPase-1 (SERCA-1) was the predominant isoform in our SR preparations.[42]
Steady-state assays of the SR Ca^2+-ATPase were measured spectrophotometrically at 25 °C using the coupled enzyme pyruvate kinase/lactate dehydrogenase assay (Scheme 1) as described elsewhere.[42] Briefly, after the addition of the enzymes (pyruvate kinase and lactate dehydrogenase) and the substrate phosphoenolpyruvate to the medium, the experiment was initiated by adding NADH (0.25 mM) and the vesicles containing Ca^2+-ATPase (10 μg mL^–1).
ATP (2.5 mM) was added and the absorbance was recorded for about 1 minute (basal activity). Afterwards, the calcium ionophore calcimycin 4% (w/w), which releases again the Ca^2+ ions, that were pumped in by the ATPase, was added and the decreasing NADH absorbance at 340 nm was measured for about 2 minutes (uncoupled ATPase activity). This was done to increase the ATPase activity (due to the ionophore-mediated impairment of the Ca^2+ gradient) in order to better study the effect of the inhibitors and to ensure that the SR Ca^2+-ATPase vesicles are not leaky. For the experiments including POTs, freshly prepared POT solutions (10 mM and 1 mM for all POTs except for Se2W29 1 mM and 0.1 mM) were added to the medium prior to the addition of SR Ca^2+-ATPase. The ATPase activity and its inhibition was measured taking into account the decrease of the OD (optical density) per minute in the absence (100%) and in the presence of the investigated POTs.[33] The detection system was not affected by the POTs themselves (not even at their highest concentrations), which was confirmed by a rapid decrease in absorbance at 340 nm upon addition of 40 μM ADP after the assay. All experiments were performed at least in triplicates. The inhibitory power of the investigated POTs was evaluated by determining the respective IC50 value, that is, the POT concentration needed to induce a 50% inhibition of the Ca^2+-ATPase enzyme activity.

SR Ca^2+-ATPase [3] = molecular target: T1, SR Ca^2+-ATPase; set-up: method as in PMID 22178669; conditions: cited from earlier work; for IC50: previously reported; for Type of inhibition of Ca^2+-ATPase: regarding the natural ligand MgATP
Na^+/K^+-ATPase = conditions: previous studies; cited from earlier work

IC50 (SR Ca^2+-ATPase [2]) [µM]	Compound	Effect on ATPase activity after 30 minutes ([1]; 10 μM compound)	ET50 (time to reach 50% of the maximum effect) ([1]; 10 μM compound)	Maximum inhibition ([1]; 10 μM compound) [%]	other results
68	Na12[H4W22O74]·50H2O	no effect	–	–	–
–	decaniobate [Nb10]	–	–	–	IC50 (SR Ca^2+-ATPase [3]): 35 µM; Type of inhibition of Ca^2+-ATPase (SR Ca^2+-ATPase [3]): non-competitive
–	K9(C2H8N)5[H10Se2W29O103]·30H2O	–	–	–	ET50 (time to reach 50% of the maximum effect) ([1]; 1 μM compound): 6.5 (1 μM) min; Maximum inhibition ([1]; 1 μM compound): 14%
–	C[C@@H]1O[C@@H](O[C@H]2C[C@@H](O)[C@]3(CO)[C@H]4[C@H](O)C[C@]5(C)[C@@H](C6=CC(=O)OC6)CC[C@]5(O)[C@@H]4CC[C@]3(O)C2)[C@H](O)[C@H](O)[C@H]1O [Ouabain, reference compound]	–	3.2 ± 0.2 min and 3.2 min and 3.2 (10 μM) min	100	–
–	[O]=[V]([O-])([O-])[O][V]1(=[O])[O][V]2(=[O])[O][V](=[O])([O][V](=[O])([O-])[O-])[O][V](=[O])([O]2)[O][V]2(=[O])[O][V](=[O])([O][V](=[O])([O-])[O-])[O][V](=[O])([O]1)[O]2 (stereo not shown) [V10, decavanadate]	–	–	–	IC50 (SR Ca^2+-ATPase [3]): 15 µM; Type of inhibition of Ca^2+-ATPase (SR Ca^2+-ATPase [3]): non-competitive
11	K12[α-H2P2W12O48]·16H2O	no effect	–	–	–
16	Na10[A-α-SiW9O34]·16H2O	no effect	–	–	–
–	K6H2[TiW11CoO40]·13H2O [CoW11Ti]	–	10 (10 μM) min	75	–
–	[O]=[W](=[O])([OH])[OH] [orthotungstate]	–	–	–	IC50 (Na^+/K^+-ATPase): 1500 µM; IC50 (SR Ca^2+-ATPase [3]): 400 µM
–	K6[α-P2W18O62]·14H2O	–	4.3 (10 μM) min	~100	ET50 (time to reach 50% of the maximum effect) ([1]; 0.5 μM compound): 8.2 (0.5 μM) min; Maximum inhibition ([1]; 0.5 μM compound): 86%; ET50 (time to reach 50% of the maximum effect) ([1]; 1 μM compound): 6.5 (1 μM) min; Maximum inhibition ([1]; 1 μM compound, 1 µM): 99%; Type of inhibition of Ca^2+-ATPase (SR Ca^2+-ATPase [2]): mixed type of inhibition
200	Na6[TeW6O24]·22H2O	–	60 (10 μM) min	10	Type of inhibition of Ca^2+-ATPase (SR Ca^2+-ATPase [2]): mixed type of inhibition

Compound	IC50 (SR Ca^2+-ATPase [2]) [µM]	Effect on ATPase activity after 30 minutes ([1]; 10 μM compound)	ET50 (time to reach 50% of the maximum effect) ([1]; 10 μM compound)	Maximum inhibition ([1]; 10 μM compound) [%]	other results
Na9[B-α-AsW9O33]·27H2O	20	–	8.5 min and 8.5 (10 μM) min	66	–
K14[As2W19O67(H2O)]·23H2O	28	no effect	–	–	–
